The values that follow come from ChEMBL document CHEMBL4028831, “Improvement of hERG-ROMK index of spirocyclic ROMK inhibitors through scaffold optimization and incorporation of novel pharmacophores” (Bioorg Med Chem Lett, 2017).

The source made the active and inactive calls. The rule behind the calls is not given here.

Data set [1] addresses T1, ATP-sensitive inward rectifier potassium channel 1 (Homo sapiens, UniProt P48048).
T1 sequence (P48048 whole entry): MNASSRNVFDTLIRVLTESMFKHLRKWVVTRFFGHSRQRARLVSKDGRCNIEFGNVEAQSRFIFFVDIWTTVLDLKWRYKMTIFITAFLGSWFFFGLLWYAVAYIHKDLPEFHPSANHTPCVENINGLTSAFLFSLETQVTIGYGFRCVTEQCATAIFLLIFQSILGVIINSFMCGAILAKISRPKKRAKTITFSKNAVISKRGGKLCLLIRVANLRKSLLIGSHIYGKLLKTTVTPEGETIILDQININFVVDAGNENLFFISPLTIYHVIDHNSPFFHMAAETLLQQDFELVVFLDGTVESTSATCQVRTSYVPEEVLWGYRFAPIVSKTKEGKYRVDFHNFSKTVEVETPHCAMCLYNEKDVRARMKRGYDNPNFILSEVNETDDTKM
Kind of data set: Inhibition of human ROMK channel expressed in HEK293 cells after 30 mins by FLIPR based thallium flux assay. The format is cell-based.

The nature of data set [2]: Clearance in Wistar Han rat at 0.5 mg/kg, iv or 1 mg/kg, po. The format is ADME, organism-based. As to conditions: in vivo.
A short description of data set [3]: Volume of distribution at steady state in Wistar Han rat at 0.5 mg/kg, iv or 1 mg/kg, po. The format is ADME, organism-based. As to conditions: in vivo, read-out: Vdss.
Data set [4] relates to Rattus norvegicus. Kind of data set: Dose normalized AUC in Wistar Han rat at 1 mg/kg, po. The format is ADME, organism-based. As to conditions: in vivo.
Data set [5] is described as follows: Half life in Wistar Han rat at 0.5 mg/kg, iv or 1 mg/kg, po. To be noted: in vivo. It counts as ADME, organism-based.
Data set [6] can be described thus: Oral bioavailability in Wistar Han rat at 1 mg/kg. It counts as ADME, organism-based. As to conditions: in vivo.
The target in data set [7] is T1, ATP-sensitive inward rectifier potassium channel 1. Kind of data set: Inhibition of human ROMK expressed in CHO cells at -70 mV holding potential after 6 mins by whole cell patch clamp Qpatch method. The format is cell-based.
Data set [8] can be described thus: Clearance in Beagle dog at 1 mg/kg, iv. The format is ADME, organism-based, Canis lupus familiaris. As to conditions: in vivo.
Data set [9] in a line: Volume of distribution at steady state in Beagle dog at 1 mg/kg, iv. It counts as ADME, organism-based, Canis lupus familiaris. To be noted: in vivo, read-out: Vdss.
The nature of data set [10]: Half life in Beagle dog at 1 mg/kg, iv. The format is ADME, organism-based, Canis lupus familiaris. As to conditions: in vivo.
The subject of data set [11] is Rattus norvegicus. Kind of data set: Antihypertensive activity in rat spontaneous hypertensive model assessed as change in systolic blood pressure at 25 mg/kg, po qd measured after 3 days. The format is functional.
The target of data set [12] is Voltage-gated inwardly rectifying potassium channel KCNH2 (Homo sapiens, UniProt Q12809). Briefly: Displacement of [35S]MK499 from human ERG expressed in HEK293 cells. On the technique in general: In a radioligand displacement assay an active substance lowers the binding of a labelled ligand.
Voltage-gated inwardly rectifying potassium channel KCNH2, sequence (Q12809 whole entry): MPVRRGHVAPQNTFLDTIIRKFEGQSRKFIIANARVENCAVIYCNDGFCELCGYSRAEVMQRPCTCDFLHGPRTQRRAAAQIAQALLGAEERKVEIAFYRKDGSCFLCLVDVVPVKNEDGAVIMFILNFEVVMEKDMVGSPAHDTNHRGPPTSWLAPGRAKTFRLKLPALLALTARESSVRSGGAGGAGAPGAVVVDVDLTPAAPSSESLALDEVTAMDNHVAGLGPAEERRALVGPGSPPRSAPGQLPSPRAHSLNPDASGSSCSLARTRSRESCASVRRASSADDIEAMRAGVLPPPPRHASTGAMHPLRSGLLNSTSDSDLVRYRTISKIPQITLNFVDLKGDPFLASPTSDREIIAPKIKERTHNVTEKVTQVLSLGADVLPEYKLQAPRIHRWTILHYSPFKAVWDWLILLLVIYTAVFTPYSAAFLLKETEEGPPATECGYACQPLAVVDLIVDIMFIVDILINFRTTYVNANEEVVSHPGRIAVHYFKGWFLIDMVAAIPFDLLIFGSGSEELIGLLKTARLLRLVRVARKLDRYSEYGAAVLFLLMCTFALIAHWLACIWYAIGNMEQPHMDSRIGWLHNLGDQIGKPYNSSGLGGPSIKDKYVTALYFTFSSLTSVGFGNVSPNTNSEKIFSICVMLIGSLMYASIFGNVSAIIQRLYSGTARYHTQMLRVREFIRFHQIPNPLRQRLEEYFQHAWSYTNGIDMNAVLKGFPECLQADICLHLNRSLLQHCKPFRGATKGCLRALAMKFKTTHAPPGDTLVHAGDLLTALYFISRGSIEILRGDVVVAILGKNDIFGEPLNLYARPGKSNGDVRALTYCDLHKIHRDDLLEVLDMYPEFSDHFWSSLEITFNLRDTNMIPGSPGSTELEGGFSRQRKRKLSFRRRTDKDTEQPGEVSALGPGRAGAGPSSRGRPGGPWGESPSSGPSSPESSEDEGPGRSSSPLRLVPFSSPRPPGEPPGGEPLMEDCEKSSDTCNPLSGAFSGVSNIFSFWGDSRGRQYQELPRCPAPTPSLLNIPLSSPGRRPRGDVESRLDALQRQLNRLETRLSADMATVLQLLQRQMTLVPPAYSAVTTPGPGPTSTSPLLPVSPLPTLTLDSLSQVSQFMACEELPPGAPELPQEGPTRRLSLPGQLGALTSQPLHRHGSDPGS
The species entered for the next data set is Homo sapiens. Briefly: Selectivity ratio of IC50 for human ERG expressed in HEK293 cells to IC50 for human ROMK expressed in HEK293 cells. It counts as cell-based.
A short description of data set [13]: Clearance in rat at 0.5 mg/kg, iv. As to conditions: in vivo.
Data set [14] deals with Rattus norvegicus. Kind of data set: Antihypertensive activity in rat spontaneous hypertensive model assessed as change in systolic blood pressure at 3 mg/kg, po qd measured after 3 days. It counts as functional.
In data set [15] the test system is Rattus norvegicus. Kind of data set: Antihypertensive activity in rat spontaneous hypertensive model assessed as induction of kaliuresis at 3 mg/kg, po qd measured after 3 days. It counts as functional, organism-based.
Data set [16] deals with Rattus norvegicus. Kind of data set: Antihypertensive activity in rat spontaneous hypertensive model assessed as induction of natriuresis at 3 mg/kg, po qd measured after 3 days. The format is functional, organism-based.
For data set [17], the system named is Rattus norvegicus. Kind of data set: Antihypertensive activity in rat spontaneous hypertensive model assessed as induction of diuresis at 3 mg/kg, po qd measured after 3 days. The format is functional, organism-based.

For `COc1nccc(N2CCC3(CCN(C[C@H](O)c4ccc5c(c4C)COC5=O)CC3)C2=O)n1`, the IC50 – broadly, the midpoint of a concentration-inhibition curve – turned out to be 14 nM in data set [1] and 5 nM in data set [7]. Moreover, the values for the clearance in data set [2] and in data set [8] were 7.8 mL/min/kg and 9.7 mL/min/kg, respectively. The results for the Vd in data set [3] and in data set [9] were 1.8 L/kg and 0.7 L/kg, respectively. Also, in the data set with Rattus norvegicus [4], the AUC/dose came to 3.8 µM·kg·h/mg. Further, the half-life – broadly, the time in which the quantity being followed falls by half – in data set [5] was 4.1 h; in [10], 1 h. In addition, in data set [6], the bioavailability stood at 80%.
As to `NS(=O)(=O)c1cc2c(cc1Cl)NCNS2(=O)=O` [HYDROCHLOROTHIAZIDE], in the data set on Rattus norvegicus [11], the Activity is on record as -7 mmHg.
Turning to `Cn1nc(N2CCC3(CCN(C[C@H](O)c4ccc(-n5cnnn5)nn4)CC3)C2=O)ccc1=O`, the IC50 in data set [1] stood at 570 nM; in [12] it was 3100 nM. The Ratio IC50 in the data set listed under Homo sapiens is 5.
In turn, `Cc1nc(-n2cnnn2)ccc1[C@@H](O)CN1CCC2(CC1)CCN(c1ccc(=O)n(C)n1)C2=O` registered an IC50 in data set [12] of 17200 nM. Also, the Ratio IC50 in the data set filed under Homo sapiens is 66.
`Cc1c([C@@H](O)CN2CCC3(CC2)CCN(c2cnn(C)c(=O)c2)C3=O)ccc2c1COC2=O` had an IC50 in data set [1] of 180 nM.
In [12], `Cc1c([C@@H](O)[C@H](C)N2CCC3(CCN(c4ccc(=O)n(C)n4)C3=O)CC2)ccc2c1COC2=O` had an IC50 of more than 60000 nM.
With `Cc1c([C@@H](O)CN2CCC3(CC2)CCN(c2ccc(S(C)(=O)=O)cn2)C3)ccc2c1COC2=O`, the clearance in data set [13] turned out to be 24.2 mL/min/kg.
`Cc1c([C@@H](O)CN2CCC3(CC2)CN(c2ccc(=O)n(C)n2)C3)ccc2c1COC2=O`: the IC50 in data set [1] is more than 2000 nM.
As to `Cc1c([C@@H](O)CN2CCC3(CC2)CCN(c2ccc(=O)n(C4CCCC4)n2)C3=O)ccc2c1COC2=O`, the IC50 in data set [1] turned out to be 41 nM; in [12], 13500 nM. In the data set listed under Homo sapiens, the Ratio IC50 worked out at 329.
In data set [1], `Cc1c([C@@H](O)CN2CCC3(CC2)CN(c2ccns2)C(=O)O3)ccc2c1COC2=O` had an IC50 of 5100 nM.
Same read-out and setting: to `Cc1c([C@@H](O)CN2CCC3(CC2)CCN(c2ccns2)C3)ccc2c1COC2=O` belongs 27 nM.
Consider `Cc1c([C@@H](O)CN2CCC3(CC2)CCN(c2cn(C)c(=O)cn2)C3=O)ccc2c1COC2=O`, for which the IC50 in data set [12] was more than 60000 nM.
Consider `Cc1c([C@@H](O)CN2CCC3(CC2)CCN(c2cc(-c4ccccc4)no2)C3=O)ccc2c1COC2=O`, for which, in [12], the IC50 was found to be 54 nM. Besides, the Ratio IC50 in the data set filed under Homo sapiens is 0.11.
For `Cc1c([C@@H](O)CN2CCC3(CC2)CCN(c2ccns2)C3=O)ccc2c1COC2=O`, the Activity in the data set with Rattus norvegicus [14] is reported as -6 mmHg. In the data set on Rattus norvegicus [15], the outcome was inactive. In addition, the result with Rattus norvegicus [16] and in the data set with Rattus norvegicus [17] was Active.
In the case of `Cc1c([C@@H](O)CN2CCC3(CC2)CCN(c2ccncc2)C3=O)ccc2c1COC2=O`, the clearance in [2] came out at 128 mL/min/kg. In addition, the Vd in [3] stood at 21.5 L/kg. The AUC/dose with Rattus norvegicus [4] was 0.11 µM·kg·h/mg. The compound further had a half-life in data set [5] of 2 h. In addition, the bioavailability in data set [6] is 37%.
Consider `Cc1nsc(N2CCC3(CCN(C[C@H](O)c4ccc5c(c4C)COC5=O)CC3)C2=O)n1`, for which the Activity in the data set on Rattus norvegicus [14] is given as -10 mmHg. Further, the clearance in data set [2] stood at 41 mL/min/kg. Further, in data set [3], the Vd was 4.2 L/kg. The same compound showed an AUC/dose with Rattus norvegicus [4] of 1 µM·kg·h/mg. Further, the half-life in data set [5] is 1.9 h. For the same compound, the bioavailability in data set [6] came to 106%. This compound came in with an IC50 in data set [7] of 8 nM. The result with Rattus norvegicus [15] was inactive. The result with Rattus norvegicus [16] and in the data set with Rattus norvegicus [17] was Active.
Take `COc1nsc(N2CCC3(CCN(C[C@H](O)c4ccc5c(c4C)COC5=O)CC3)C2=O)n1`: the Activity in the data set on Rattus norvegicus [14] is on record as -23 mmHg. Besides, the clearance in data set [2] is 9.6 mL/min/kg; in data set [8], 24.4 mL/min/kg. The Vd was 3 L/kg in [3] and 1.7 L/kg in data set [9]. The compound also registered an AUC/dose in the data set on Rattus norvegicus [4] of 1.8 µM·kg·h/mg. Also, the half-life is 4.7 h in data set [5] and 1.3 h in [10]. For the same compound, the bioavailability in [6] amounted to 47%. In addition, the result in the data set on Rattus norvegicus [15] was inactive. In addition, the result in the data set on Rattus norvegicus [16] and in the data set on Rattus norvegicus [17] was Active.
Compound `COc1cc(N2CCC3(CCN(C[C@H](O)c4ccc5c(c4C)COC5=O)CC3)C2=O)ccn1` had a clearance in data set [2] of 20.8 mL/min/kg. In addition, the Vd in data set [3] was 5 L/kg. In addition, the AUC/dose in the data set with Rattus norvegicus [4] amounted to 1.2 µM·kg·h/mg. The compound further showed a half-life in data set [5] of 4.1 h. Also, the bioavailability in [6] turned out to be 66%.
The compound `Cc1c([C@@H](O)CN2CCC3(CC2)CCN(c2ccn(C)c(=O)c2)C3=O)ccc2c1COC2=O` had an IC50 in [1] of 7600 nM.
Compound `Cc1nccc(N2CCC3(CCN(C[C@H](O)c4ccc5c(c4C)COC5=O)CC3)C2=O)n1` came in with an IC50 in [1] of 190 nM. Further, in the data set on Rattus norvegicus [14], the Activity is reported as -11 mmHg. The compound also returned a clearance in data set [2] of 30.3 mL/min/kg. The Vd in data set [3] is 4.4 L/kg. Further, the AUC/dose in the data set with Rattus norvegicus [4] turned out to be 1.6 µM·kg·h/mg. This compound also had a half-life in data set [5] of 2.6 h. Besides, the bioavailability in data set [6] is 120%. The result in the data set with Rattus norvegicus [15] was inactive. For the same compound, the result with Rattus norvegicus [16] and in the data set with Rattus norvegicus [17] was Active.
In turn, `Cc1nsc(N2CCC3(CCN(C[C@H](O)c4ccc5c(c4C)COC5=O)CC3)C2)n1` yielded an IC50 in data set [12] of 4200 nM. Further, in the data set listed under Homo sapiens, the Ratio IC50 was 17.
Regarding `Cc1c([C@@H](O)CN2CCC3(CC2)CCN(c2ccc(=O)n(C(F)F)n2)C3=O)ccc2c1COC2=O`, the results for the IC50 in data set [1] and in data set [12] were 130 nM and 19100 nM, respectively. For the same compound, the Ratio IC50 in the data set filed under Homo sapiens turned out to be 147.
The compound `Cc1cc(=O)n(C)nc1N1CCC2(CCN(C[C@H](O)c3ccc4c(c3C)COC4=O)CC2)C1=O` registered an IC50 in [1] of 1050 nM.
As for `Cc1cc(N2CCC3(CCN(C[C@H](O)c4ccc5c(c4C)COC5=O)CC3)C2=O)sn1`, the results for the IC50 in data set [1] and in data set [7] were 18 nM and 12 nM, respectively. Moreover, the clearance in [2] came to 23 mL/min/kg. Also, the Vd in data set [3] amounted to 3.2 L/kg. Besides, the AUC/dose in the data set with Rattus norvegicus [4] stood at 0.73 µM·kg·h/mg. Moreover, the half-life in data set [5] was 2.4 h. Further, the bioavailability in data set [6] was 45%.
Consider `CCn1nc(N2CCC3(CCN(C[C@H](O)c4ccc5c(c4C)COC5=O)CC3)C2=O)ccc1=O`, for which the IC50 in [12] worked out at 7600 nM. The Ratio IC50 in the data set listed under Homo sapiens was determined as 99.
